Source: ChEMBL document CHEMBL6127132, “Design, Synthesis, and Biological Evaluation of Novel Diaminopyrimidine Macrocycles as Fourth Generation Reversible EGFR Inhibitors That Overcome Clinical Resistance to Osimertinib Mediated by C797S Mutation” (J Med Chem, 2024)

What was measured:
[1] = Antiproliferative activity against mouse BaF3 cells assessed as inhibition of cell proliferation incubated for 72 hrs by CCK-8 assay; format: toxicity, cell-based
[2] = target: Epidermal growth factor receptor (Mus musculus) (UniProt Q01279); experiment: Inhibition of EGFR phosphorylation in mouse BaF3 cells harboring EGFR L858R/T790M/C797S mutant preincubated for 2 hrs followed by EGF stimulation and measured after 15 mins by Western blot analysis; format: cell-based; details: dose 1-1000 nM, time 135.0 min
[3] = target: Epidermal growth factor receptor (Mus musculus) (UniProt Q01279); experiment: Inhibition of EGFR phosphorylation in mouse BaF3 cells harboring EGFR 19del/T790M/C797S mutant preincubated for 2 hrs followed by EGF stimulation and measured after 15 mins by Western blot analysis; format: cell-based; details: dose 1-1000 nM, time 135.0 min
[4] = target: Epidermal growth factor receptor (Mus musculus) (UniProt Q01279); experiment: Inhibition of EGFR downstream signaling in mouse BaF3 cells harboring EGFR L858R/T790M/C797S mutant assessed as reduction in phosphorylated ERK level preincubated for 2 hrs followed by EGF stimulation and measured after 15 mins by Western blot analysis; format: cell-based; details: dose 1-1000 nM, time 135.0 min
[5] = target: Epidermal growth factor receptor (Mus musculus) (UniProt Q01279); experiment: Inhibition of EGFR downstream signaling in mouse BaF3 cells harboring EGFR 19del/T790M/C797S mutant assessed as reduction in phosphorylated ERK level preincubated for 2 hrs followed by EGF stimulation and measured after 15 mins by Western blot analysis; format: cell-based; details: dose 1-1000 nM, time 135.0 min
[6] = Induction of apoptosis in mouse BaF3 cells harboring EGFR 19del/T790M/C797S mutant assessed as early apoptotic cells at 30 nM incubated for 48 hrs by Annexin V-FITC/PI staining based flow cytometric analysis (reference value: 0.46 %); format: functional
[7] = Induction of apoptosis in mouse BaF3 cells harboring EGFR 19del/T790M/C797S mutant assessed as late apoptotic cells at 30 nM incubated for 48 hrs by Annexin V-FITC/PI staining based flow cytometric analysis (reference value: 2.29 %); format: functional
[8] = Induction of apoptosis in mouse BaF3 cells harboring EGFR 19del/T790M/C797S mutant assessed as early apoptotic cells at 100 nM incubated for 48 hrs by Annexin V-FITC/PI staining based flow cytometric analysis (reference value: 0.46 %); format: functional
[9] = Induction of apoptosis in mouse BaF3 cells harboring EGFR 19del/T790M/C797S mutant assessed as late apoptotic cells at 100 nM incubated for 48 hrs by Annexin V-FITC/PI staining based flow cytometric analysis (reference value: 2.29 %); format: functional
[10] = Induction of apoptosis in mouse BaF3 cells harboring EGFR 19del/T790M/C797S mutant assessed as early apoptotic cells at 300 nM incubated for 48 hrs by Annexin V-FITC/PI staining based flow cytometric analysis (reference value: 0.46 %); format: functional
[11] = Induction of apoptosis in mouse BaF3 cells harboring EGFR 19del/T790M/C797S mutant assessed as late apoptotic cells at 300 nM incubated for 48 hrs by Annexin V-FITC/PI staining based flow cytometric analysis (reference value: 2.29 %); format: functional
[12] = Induction of apoptosis in mouse BaF3 cells harboring EGFR 19del/T790M/C797S mutant assessed as early apoptotic cells at 1000 nM incubated for 48 hrs by Annexin V-FITC/PI staining based flow cytometric analysis (reference value: 0.46 %); format: functional
[13] = Induction of apoptosis in mouse BaF3 cells harboring EGFR 19del/T790M/C797S mutant assessed as late apoptotic cells at 1000 nM incubated for 48 hrs by Annexin V-FITC/PI staining based flow cytometric analysis (reference value: 2.29 %); format: functional
[14] = test system: BaF3; experiment: Induction of apoptosis in mouse BaF3 cells harboring EGFR 19del/T790M/C797S mutant assessed as caspase 3 cleavage incubated for 48 hrs by Western blot analysis; format: functional, cell-based; details: dose 30-1000 nM
[15] = Half-life in male SPF Sprague-Dawley rat at 2 mg/kg, iv measured after 24 hrs by LC-MS/MS analysis; format: ADME, organism-based; details: in vivo
[16] = Tmax in male SPF Sprague-Dawley rat at 2 mg/kg, iv measured after 24 hrs by LC-MS/MS analysis; format: ADME, organism-based; details: in vivo
[17] = Cmax in male SPF Sprague-Dawley rat at 2 mg/kg, iv measured after 24 hrs by LC-MS/MS analysis; format: ADME, organism-based; details: in vivo
[18] = AUC (0 to t) in male SPF Sprague-Dawley rat at 2 mg/kg, iv measured after 24 hrs by LC-MS/MS analysis; format: ADME, organism-based; details: in vivo
[19] = AUC (0 to infinity) in male SPF Sprague-Dawley rat at 2 mg/kg, iv measured after 24 hrs by LC-MS/MS analysis; format: ADME, organism-based; details: in vivo
[20] = Clearance in male SPF Sprague-Dawley rat at 2 mg/kg, iv measured after 24 hrs by LC-MS/MS analysis; format: ADME, organism-based; details: in vivo
[21] = MRT (0 to t) in male SPF Sprague-Dawley rat at 2 mg/kg, iv measured after 24 hrs by LC-MS/MS analysis; format: ADME, organism-based; details: in vivo
[22] = Half-life in male SPF Sprague-Dawley rat at 10 mg/kg, po measured after 24 hrs by LC-MS/MS analysis; format: ADME, organism-based; details: in vivo
[23] = Tmax in male SPF Sprague-Dawley rat at 10 mg/kg, po measured after 24 hrs by LC-MS/MS analysis; format: ADME, organism-based; details: in vivo
[24] = Cmax in male SPF Sprague-Dawley rat at 10 mg/kg, po measured after 24 hrs by LC-MS/MS analysis; format: ADME, organism-based; details: in vivo
[25] = AUC (0 to t) in male SPF Sprague-Dawley rat at 10 mg/kg, po measured after 24 hrs by LC-MS/MS analysis; format: ADME, organism-based; details: in vivo
[26] = AUC (0 to infinity) in male SPF Sprague-Dawley rat at 10 mg/kg, po measured after 24 hrs by LC-MS/MS analysis; format: ADME, organism-based; details: in vivo
[27] = MRT (0 to t) in male SPF Sprague-Dawley rat at 10 mg/kg, po measured after 24 hrs by LC-MS/MS analysis; format: ADME, organism-based; details: in vivo
[28] = Oral bioavailability in male SPF Sprague-Dawley rat at 10 mg/kg measured after 24 hrs by LC-MS/MS analysis; format: ADME, organism-based; details: in vivo
[29] = test system: BaF3; experiment: Antitumor activity against mouse BaF3 cells harboring 19del/T790M/C797S mutant implanted in female BALB/c nu/nu mouse assessed as tumor growth inhibition at 20 mg/kg, po administered once daily for 9 days relative to control; format: functional; details: BaF3, 216 h, time 9 day, read-out: TGI
[30] = Toxicity in female BALB/c nu/nu mouse implanted with mouse BaF3 cells harboring 19del/T790M/C797S mutant assessed as mortality at 20 mg/kg, po administered once daily for 9 days; format: organism-based; details: in vivo, 216 h, time 9 day
[31] = Toxicity in female BALB/c nu/nu mouse implanted with mouse BaF3 cells harboring 19del/T790M/C797S mutant assessed as body weight loss at 20 mg/kg, po administered once daily for 9 days; format: organism-based; details: in vivo, 216 h, time 9 day
[32] = test system: BaF3; experiment: cells; details: Mus musculus, BaF3, 72 h
[33] = test system: BaF3; experiment: cells; details: Mus musculus, BaF3, 72 h; remark: listed apart in the source
[34] = cells; details: Homo sapiens, PC9-OR, 72 h
[35] = test system: A-431; experiment: cells; details: Homo sapiens, A-431, 72 h
Description: Antiproliferative activity against human A-431 cells harboring wildtype EGFR assessed as inhibition of cell proliferation measured after 72 hrs by SRB assay

Chain of Epidermal growth factor receptor (Mus musculus) (Q01279 whole entry): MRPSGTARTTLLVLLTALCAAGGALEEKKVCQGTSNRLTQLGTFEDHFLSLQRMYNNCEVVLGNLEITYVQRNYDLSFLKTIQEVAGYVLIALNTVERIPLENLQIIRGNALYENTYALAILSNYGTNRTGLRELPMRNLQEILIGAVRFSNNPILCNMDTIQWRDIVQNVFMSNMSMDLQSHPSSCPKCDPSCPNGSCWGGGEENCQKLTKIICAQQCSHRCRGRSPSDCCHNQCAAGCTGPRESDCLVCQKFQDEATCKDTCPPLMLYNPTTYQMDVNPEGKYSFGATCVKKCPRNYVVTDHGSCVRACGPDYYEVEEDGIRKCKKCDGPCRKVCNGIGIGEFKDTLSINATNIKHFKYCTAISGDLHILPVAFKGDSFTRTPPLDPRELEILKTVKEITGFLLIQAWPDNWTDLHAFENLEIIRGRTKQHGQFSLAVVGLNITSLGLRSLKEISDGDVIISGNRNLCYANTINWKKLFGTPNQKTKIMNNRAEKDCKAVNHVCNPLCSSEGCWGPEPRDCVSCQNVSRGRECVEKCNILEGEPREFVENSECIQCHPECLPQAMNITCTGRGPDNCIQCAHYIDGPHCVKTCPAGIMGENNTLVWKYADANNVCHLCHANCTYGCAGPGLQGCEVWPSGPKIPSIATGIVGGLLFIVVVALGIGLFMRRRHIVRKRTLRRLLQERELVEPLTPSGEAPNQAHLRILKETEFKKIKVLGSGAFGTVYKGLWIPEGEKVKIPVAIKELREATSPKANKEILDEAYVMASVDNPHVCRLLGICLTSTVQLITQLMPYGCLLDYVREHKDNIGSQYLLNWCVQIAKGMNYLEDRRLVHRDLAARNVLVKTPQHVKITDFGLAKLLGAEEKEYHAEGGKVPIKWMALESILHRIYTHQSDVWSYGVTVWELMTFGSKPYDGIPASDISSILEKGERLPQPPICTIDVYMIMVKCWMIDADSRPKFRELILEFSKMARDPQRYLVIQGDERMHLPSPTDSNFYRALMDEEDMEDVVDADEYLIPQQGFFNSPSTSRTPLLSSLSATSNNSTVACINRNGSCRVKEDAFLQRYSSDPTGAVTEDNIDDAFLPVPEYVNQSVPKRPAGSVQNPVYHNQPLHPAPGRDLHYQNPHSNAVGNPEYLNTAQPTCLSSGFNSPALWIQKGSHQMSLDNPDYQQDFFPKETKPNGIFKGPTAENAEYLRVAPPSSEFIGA

COc1cc(N2CCOCC2)c2cc1Nc1ncc(C)c(n1)Nc1ccc(cc1P(C)(C)=O)OCCCn1cc-2cn1
IC50 at 72 h [1]: 2100 nM | inhibition [2]: Dose-Dependent Effect | inhibition [3]: Dose-Dependent Effect | inhibition [4]: Dose-Dependent Effect | inhibition [5]: Dose-Dependent Effect | Activity [6]: 2.26% | Activity [7]: 1.64% | Activity [8]: 5.98% | Activity [9]: 3.44% | Activity [10]: 34.23% | Activity [11]: 16.34% | Activity [12]: 71.63% | Activity [13]: 17.31% | Activity [14]: Dose-Dependent Effect | half-life [15]: 5.54 h | Tmax [16]: 4.98 min | Cmax [17]: 2150 ng/mL | AUC(0-t) at 24 h [18]: 7630 ng·h/mL | AUC(0-inf) [19]: 7900 ng·h/mL | clearance [20]: 4.27 mL/min/kg | MRT last at 24 h [21]: 3.89 h | half-life [22]: 4.32 h | Tmax [23]: 1.67 h | Cmax [24]: 1820 ng/mL | AUC(0-t) at 24 h [25]: 18000 ng·h/mL | AUC(0-inf) [26]: 18500 ng·h/mL | MRT last at 24 h [27]: 5.86 h | bioavailability [28]: 47% | inhibition in vivo at 20 mg/kg [29]: 65.4% | Activity [30]: Non-Toxic | Activity [31]: Non-Toxic | IC50 [32]: 41 nM | IC50 [33]: 52 nM | IC50 [34]: 56 nM | IC50 [35]: 246 nM
